In US4916068A, “Bioconversion production of ascorbic acid with L-galactono-1,4-oxidase” (Kraft, Inc., priority 1984, dated 1990):

Columns and labels:
[1] = test system: Candida norvegensis; experiment: Assimilation tests (identification of the yeast); assay type: cell-based; conditions: C. norvegensis MF-56, MF-78 and parent CBS 2145
From the text: The morphological, cultural and physiological characteristics of the mutant strain C. norvegensis Kraft, Inc. MF-56 ATCC 20686, the mutant strain C. norvegensis Kraft, Inc. MF-78 ATCC 20732, and the parent strain C. norvegensis CBS 2145 are consistent with the yeast description provided in The Yeasts, a taxononomic study (J. Lodder (Ed.) 1970, North Holland Publishing Co., Amsterdam) and A New Key to the Yeasts (J. A. Barnett & R. J. Parkhurst (Ed) 1974, North Holland Publishing Co., Amsterdam).

[2] = test system: Candida utilus NRRL Y-900; experiment: aerobic bioconversion run with ethanol carbon source; assay type: cell-based; conditions: 48 hours; for Other redox Compounds / Total Ascorbate / L-Ascorbate: 0.2% substrate; for L-Ascorbate: HPLC with electrochemical detection; for Optical Density: SMl + 1.5% ethanol + 0.2% substrate, 30° C.
Method: (§1) Two yeast strains, Candida norvegensis CBS 1911 and Candida utilus NRRL Y-900 are utilized with an ethanol carbon source in separate bioconversion runs with each of two different substrates, L-galactono-1,4-lactone or D-galacturonic acid-methyl ester. The bioconversion runs are carried out under aerobic conditions in a 500 milliliter low actinic flask containing 50 ml of the biconversion medium. The bioconversions were carried out at a temperature of 30° C. for 48 hours with agitation provided by a skaker operating at 200 rpm. The medium for the C. norvegensis runs was the SMl medium previously described plus 1.5% ethanol plus 0.5% substrate. The medium for the C. utilus runs were SMl plus 1.5% ethanol plus 0.2% substrate.

[3] = test system: Candida norvegensis CBS 1911; experiment: as above; assay type: cell-based; conditions: 48 hours; for Other redox Compounds / Total Ascorbate / L-Ascorbate: 0.5% substrate; for L-Ascorbate: HPLC with electrochemical detection; for Optical Density: SMl + 1.5% ethanol + 0.5% substrate, 30° C.
Method: as §1

[4] = test system: preferred yeast strains; experiment: utilization of galactose derivatives for L-ascorbic acid formation; assay type: cell-based; conditions: compared with L-galactono-gamma-lactone
From the text: The D-galactose 18 is converted by catalytic oxidation to provide D-galacturonic acid 22. Processes to carry out this oxidative step for D-sugar acids are well known in the art and have been described in U.S. Pat. No. 2,265,121 by T. Reichstein. A variety of catalytic agents, e.g., platinum or palladium catalysts may be employed to convert blocked D-galactose (acetone) to the D-galacturonic acid product. The unblocked D-galacturonic acid may then be reduced by an appropriate reduction step such as reduction with gaseous hydrogen in the presence of a suitable hydrogenation catalyst such as Raney nickel, or palladium, to produce L-galactonic acid 24. Processes to carry out this chemical reduction are well known in the art such as described by H. Isbell, J. Res. Nat. Bur. Stds., 33, 45-60 (1944). Removal of water by distillation and condensation of the desalted L-sugar acid induces the formation of L-galactono-gamma-lactone 26 which is utilized in the microbiological conversion process of the present invention to form L-ascorbic acid. […] Keto-derivatives such as 5-Keto-L-Galactonic acid, are not utilized by the preferred yeast strains particularly described herein. The L-galactono-gamma-lactone 26, ethanol 16, and suitable organic and inorganic nutrients are combined to provide a fermentation medium 28 for a selected L-ascorbic acid overproducer.

[5] = test system: L-Galactono-1,4-Lactone Oxidase; experiment: L-galactono-1,4-lactone oxidase activity, comparison of yeast strains; assay type: biochemical; conditions: C. norvegensis (CBS 1911)
Method: An assay mixture is provided which contains 2mM L-galactono-1,4-lactone and 50 mM Na-Citrate pH 6.8 in a total volume of 3 ml. The mixture is incubated at 37° C. in a shaker bath for up to 30 minutes. The reaction is stopped by adding 0.3 ml of 50% TCA. The precipitated protein is removed by centrifugation and the supernatant is assayed for L-ascorbate by high performance liquid chromatography analysis with electrochemical detection and by 2,6,dichloroindophenol titration.
A series of 5 detergents: (1) nonylphenol POE-9 (NP-9), (2) polydet (P-40), (3) octylglucoside, (4) (3-[3-cholamindopropyl)-dimethylammonio]1-propane sulfonate (CHAPS), and (5) (3-[3-cholamindopropyl)-dimethyl ammonio]-2-hydroxy-1-propane sulfonate).2H2 O (CHAPSO) were tested. […] Biochem. & Biophys., 191, 47a (1978)].

[6] = substrate: O=C1O[C@H]([C@@H](O)CO)[C@@H](O)[C@@H]1O; experiment: mitochondrial assay for L-galactono-1,4-lactone oxidase activity; assay type: biochemical, Saccharomyces Cerevisiae; conditions: other: intact mitochondrial system, substrate 0.1 mM to 50 mM; 37.0 °C
From the text: Two pounds of Red Star baker's yeast (Saccharomyces Cerevisiae), which is not overproductive in L-Ascorbic acid were disrupted according to the method of Tzagoloff [J. Biol. Chem., 244, 5020 (1969)]. The frozen powder (900 gm) was transferred to 1.51 of a solution consisting of 0.4 M sucrose, 0.05 M Tris(hydroxymethyl) amino methane (Tris-HCl) pH 8.2, with one millimolar ethylene diamine tetracetic acid (EDTA). The pH of the suspension was adjusted to 7.5 with sodium hydroxide and the suspension was subsequently homogenized in a blender for 45 seconds. The homogenate was centrifuged at 2500×g for 15 minutes at 4° C. and the cell debris was discarded. The supernatant was centrifuged at 62000×g in a Shar-les centrifuge. The pellet (mitochondria) was saved and resuspended in 250 ml of a solution containing 0.25 M sucrose and 0.01 M Tris-HCl pH 7.5 and frozen.
An assay mixture is provided which contains 2mM L-galactono-1,4-lactone and 50 mM Na-Citrate pH 6.8 in a total volume of 3 ml. The mixture is incubated at 37° C. in a shaker bath for up to 30 minutes. The reaction is stopped by adding 0.3 ml of 50% TCA. […]
The specific activity of this sample was calculated to be 2.5 ×10^-3 micromoles/min/mg protein. […]

Question: `O=[N+]([O-])[O-].[K+]` [KNO3] was tested. Which “Assimilation of KNO3” value [1] did it give?
Answer: The value was “negative”.

Question: What does the source list for `COC(=O)[C@@H](O)[C@H](O)[C@H](O)[C@@H](O)C=O` [D-galacturonic acid-methyl ester]?
Answer: Other redox Compounds [2]: 1.3 µg/mL; Total Ascorbate [2]: 4,383 ug/100 ml; L-Ascorbate [2]: 12.0 µg/mL; Optical Density [2]: 8.50; Other redox Compounds [3]: 17.5 µg/mL; Total Ascorbate [3]: 473 ug/100 ml; L-Ascorbate [3]: 3.5 µg/mL; Optical Density [3]: 2.60

Question: With `O=C[C@H](O)[C@@H](O)[C@H](O)CO` [D-Xylose] as the molecule, how does the “Assimilation of carbon compounds” value [1] read?
Answer: Its value is “+ latent or”.

Question: How did the “utilization as substrate for L-ascorbic acid” value [4] turn out when `O=C(O)[C@@H](O)[C@H](O)[C@H](O)[C@@H](O)CO` [L-galactonic acid] was run?
Answer: The value was “yields of L-ascorbic acid are reduced”.

Question: Which “utilization as substrate for L-ascorbic acid” value [4] does the source give for `O=C(O)[C@@H](O)[C@H](O)[C@H](O)C(=O)CO` [5-Keto-L-Galactonic acid] here?
Answer: Its value is “not utilized”.

Question: How did the “Other redox Compounds” value [2] turn out when `O=C1O[C@H]([C@@H](O)CO)[C@@H](O)[C@@H]1O` [L-galactono-1,4-lactone] was run?
Answer: Its value is 1.8 µg/mL.

Question: And the “Total Ascorbate” value [2]?
Answer: Its value is 15,905 ug/100 ml.

Question: And the L-Ascorbate [2]?
Answer: Its L-Ascorbate is 50.0 µg/mL.

Question: What about the “Optical Density” value [2] of the same molecule?
Answer: Its value is 8.50.

Question: And the “Other redox Compounds” value [3]?
Answer: The value was 10.1 µg/mL.

Question: And the “Total Ascorbate” value [3]?
Answer: The value was 10,625 ug/100 ml.

Question: What about the L-Ascorbate [3] of the same molecule?
Answer: Its L-Ascorbate is 92.8 µg/mL.

Question: What about the “Optical Density” value [3] of the same molecule?
Answer: Its value is 2.05.

Question: What about the Km [5] of the same molecule?
Answer: Its Km is 1.3 mM.

B1: L-galactono-1,4-lactone oxidase (Saccharomyces cerevisiae S288C) (protein)
chain: MSTIPFRKNYVFKNWAGIYSAKPERYFQPSSIDEVVELVKSARLAEKSLVTVGSGHSPSNMCVTDEWLVNLDRLDKVQKFVEYPELHYADVTVDAGMRLYQLNEFLGAKGYSIQNLGSISEQSVAGIISTGSHGSSPYHGLISSQYVNLTIVNGKGELKFLDAENDPEVFKAALLSVGKIGIIVSATIRVVPGFNIKSTQEVITFENLLKQWDTLWTSSEFIRVWWYPYTRKCVLWRGNKTTDAQNGPAKSWWGTKLGRFFYETLLWISTKIYAPLTPFVEKFVFNRQYGKLEKSSTGDVNVTDSISGFNMDCLFSQFVDEWGCPMDNGLEVLRSLDHSIAQAAINKEFYVHVPMEVRCSNTTLPSEPLDTSKRTNTSPGPVYGNVCRPFLDNTPSHCRFAPLENVTNSQLTLYINATIYRPFGCNTPIHKWFTLFENTMMVAGGKPHWAKNFLGSTTLAAGPVKKDTDYDDFEMRGMALKVEEWYGEDLKKFRKIRKEQDPDNVFLANKQWAIINGIIDPSELSD
notes: The pellet (mitochondria) was saved and resuspended in 250 ml; endogenous in cells; host or cells: mitochondria of Red Star baker's yeast (Saccharomyces cerevisiae)
Question: How did the Km [6] turn out when B1 was run?
Answer: Its Km is 1.6 mM.

Question: And the Vmax [6]?
Answer: The Vmax was 0.34 µmol/min.
